Measurements published in US4008227A, “Cephalosporins” (Takeda Chemical Industries, Ltd., priority 1973, dated 1977).
Converted amounts (≈) assume the structure as drawn. Counter-ions that a name gives are not always drawn.

Tests used:
Assay type in all cases: cell-based
[1] = tested on: Staphylococcus aureus No. 87; test: MIC against Staphylococcus aureus No. 87
[2] = tested on: Bucillus subtilis PCI 219; test: MIC against Bucillus subtilis PCI 219
Proteus mirabilis Eb59 = test: MIC against Proteus mirabilis Eb59
Proteus vulgaris Eb51 = test: MIC against Proteus vulgaris Eb51
Escherichia coli NIHJ = test: MIC against Escherichia coli NIHJ
Sarcina lutea PCI 1001 = test: MIC against Sarcina lutea PCI 1001; conditions: Micrococcus luteus, PCI1001
[3] = tested on: Staphylococcus aureus 209P; test: MIC against Staphylococcus aureus 209P
Klebsiella pneumoniae = test: MIC against Klebsiella pneumoniae
[4] = tested on: Staphylococcus aureus 1840; test: MIC against Staphylococcus aureus 1840
Proteus morganii Eb53 = test: MIC against Proteus morganii Eb53; conditions: Morganella morganii
Proteus vulgaris = test: MIC against Proteus vulgaris (strain not given)

SMILES | MIC [1] | MIC [2] | MIC (Proteus mirabilis Eb59) | MIC (Proteus vulgaris Eb51) | MIC (Escherichia coli NIHJ) | MIC (Sarcina lutea PCI 1001) | MIC [3] | MIC (Klebsiella pneumoniae) | MIC [4] | MIC (Proteus morganii Eb53) | MIC (Proteus vulgaris)
Cc1ccc(SCC2=C(C(=O)O)N3C(=O)C(NC(=O)C[n+]4cc([O-])on4)C3SC2)n[n+]1[O-] (stereo not shown) [Example 11, 7-[2'-(3'-sydnone)acetamido]-3-[6"-(3"-methylpyridazinyl)thiomethyl]-3-cephem-4-carboxylic acid 2"-oxide] | – | – | – | – | 1.56 µg/mL (≈ 3.25 µM) | – | < 0.78 µg/mL | 1.56 µg/mL (≈ 3.25 µM) | 1.56 µg/mL (≈ 3.25 µM) | – | –
O=C(C[n+]1cc([O-])on1)NC1C(=O)N2C(C(=O)O)=C(CSc3ccc(Cl)n[n+]3[O-])CSC12 (stereo not shown) [Example 12, 7-[2'-(3'-sydnone)acetamido]-3[6"-(3"-chloropyridazinyl)-thiomethyl]-3-cephem-4-carboxylic acid 1"-oxide sodium salt] | – | – | – | – | 1.56 µg/mL | – | < 0.78 µg/mL | 1.56 µg/mL | 1.56 µg/mL | – | –
COc1ccc(SCC2=C(C(=O)O)N3C(=O)C(NC(=O)C[n+]4cc([O-])on4)C3SC2)[n+]([O-])n1 (stereo not shown) [Example 13, 7-[2'-(3'-sydnone)acetamido]-3-[6"-(3"-methoxypyridazinyl)thiomethyl]-3-cephem-4-carboxylic acid 1"-oxide sodium salt] | – | – | – | – | – | – | < 0.78 µg/mL | 1.56 µg/mL | 1.56 µg/mL | – | –

Other lines, results leading:

MIC [1] | MIC [2] | MIC (Proteus mirabilis Eb59) | MIC (Proteus vulgaris Eb51) | MIC (Escherichia coli NIHJ) | MIC (Sarcina lutea PCI 1001) | MIC [3] | MIC (Klebsiella pneumoniae) | MIC [4] | MIC (Proteus morganii Eb53) | MIC (Proteus vulgaris) | SMILES
5 µg/mL | < 0.01 µg/mL | 5 µg/mL | 1 µg/mL | 0.5 µg/mL | 0.2 µg/mL | 0.1 µg/mL | – | – | – | – | Cc1ccc(SCC2=C(C(=O)O)N3C(=O)C(NC(=O)[C@H](O)c4ccccc4)C3SC2)n[n+]1[O-] (single isomer, unassigned) [Example 1, 7-[D-(-)-mandelamido]-3-[6'-(3'-methylpyridazinyl)thiomethyl] -3-cephem-4-carboxylic acid 2'-oxide sodium salt]
– | – | – | – | 1.56 µg/mL | – | < 0.78 µg/mL | 1.56 µg/mL | 1.56 µg/mL | – | – | COc1ccc(SCC2=C(C(=O)O)N3C(=O)C(NC(=O)[C@H](O)c4ccccc4)C3SC2)[n+]([O-])n1 (single isomer, unassigned) [Example 6, 7-[D-(-)-mandelamido]-3-[6'-(3'-methoxypyridazinyl)thiomethyl]-3-cephem-4-carboxylic acid 1'-oxide sodium salt]
– | – | – | – | 1.56 µg/mL | – | < 0.78 µg/mL | < 0.78 µg/mL | < 1.56 µg/mL | 25 µg/mL | 3.12 µg/mL | O=C(O)C1=C(CSc2ccc(Cl)n[n+]2[O-])CSC2C(NC(=O)[C@H](O)c3ccccc3)C(=O)N12 (single isomer, unassigned) [Example 7, 7-[D-(-)-mandelamido]-3-[6'-(3'-chloropyridazinyl)thiomethyl]-3-cephem-4-carboxylic acid 1'-oxide sodium salt]
